Test results reported in US11358933B2, “Compounds and methods for inhibiting CYP26 enzymes” (Queen's University at Kingston, priority 2017, dated 2022).

Legend:
[1] = target: CYP26A1 (Homo sapiens (Human), UniProt O43174); experiment: Cell-based inhibitor assay ([3H]-RA metabolism), CYP26A1 stably transfected HeLa cells; details: for IC50: HeLa cell-based assay, 3 hours; for CYP26A1 Rel. to keto: IC50 relative to ketoconazole
Procedure: (§1) CYP26A1 or CYP26B1 stably transfected HeLa cells were maintained in Minimum Essential Medium (MEM) containing 10% fetal bovine serum (FBS) and 100 μg/mL hygromycin. Exponentially growing cells were harvested by incubation in trypsin. Cells were then collected and re-plated in 48-well culture plates at 5×10^5 cells in 0.2 mL of culture medium containing 0.05 μCi [^3H]-RA in the presence or absence of increasing concentrations of a test compound. The test compounds were diluted in dimethyl sulfoxide (DMSO) and then added in duplicate to wells at 0.01, 0.1, 1, 10 and 100 μM final concentration. As a positive control for inhibition of RA metabolism, cells were also incubated with ketoconazole at the same concentrations as above. Cells were incubated for 3 hours at 37° C. Retinoids were then extracted using the procedure of Bligh, et al., (1959), Canadian Journal of Biochemistry 37, 911-917, which was modified by using dichloromethane instead of chloroform. Each sample's water soluble radioactivity level was quantified using a β-scintillation counter (using Ecolume scintillation fluid, available from MP Biomedicals of Solon, Ohio, USA). IC50 values represented the concentration of inhibitor required to inhibit all trans-RA metabolism by 50%, and were derived from log transformed data.

[2] = target: CYP26B1 (Homo sapiens (Human), UniProt Q9NR63); experiment: Cell-based inhibitor assay ([3H]-RA metabolism), CYP26B1 stably transfected HeLa cells; details: for IC50: HeLa cell-based assay, 3 hours; for CYP26B1 Rel. to keto: IC50 relative to ketoconazole
CYP26B1, sequence (Q9NR63 whole entry): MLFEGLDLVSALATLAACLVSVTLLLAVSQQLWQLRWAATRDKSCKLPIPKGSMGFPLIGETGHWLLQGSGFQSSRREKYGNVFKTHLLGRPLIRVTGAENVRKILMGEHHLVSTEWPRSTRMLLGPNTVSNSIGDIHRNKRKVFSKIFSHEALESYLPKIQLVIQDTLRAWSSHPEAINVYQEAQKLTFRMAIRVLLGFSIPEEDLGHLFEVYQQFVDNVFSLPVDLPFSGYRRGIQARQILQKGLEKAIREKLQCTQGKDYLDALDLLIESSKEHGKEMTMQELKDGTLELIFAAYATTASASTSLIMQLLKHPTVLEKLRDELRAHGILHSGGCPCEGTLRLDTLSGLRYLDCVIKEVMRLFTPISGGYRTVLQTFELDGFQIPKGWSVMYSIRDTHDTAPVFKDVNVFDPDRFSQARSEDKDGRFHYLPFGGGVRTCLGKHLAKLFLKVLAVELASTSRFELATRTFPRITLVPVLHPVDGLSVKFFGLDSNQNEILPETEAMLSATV
Procedure: as §1

[3] = system: Cyp26a1-luc construct in MCF-7 cells; experiment: Retinoid activity assay, Cyp26a1-luc reporter in MCF-7 cells; type: cell-based; details: 24 hours, firefly relative to Renilla luciferase
From the text: This retinoid activity assay measures the ability of test compounds to induce expression of a transiently transfected RA sensitive reporter construct. In this assay, MCF-7 cells are transfected with a construct comprising an upstream promoter of the CYP26A1 gene containing 2 RA response elements driving expression of firefly luciferase (pCYP26A1-luc). Since CYP26A1 is highly inducible by RA in these cells, this construct serves as a sensitive reporter of retinod-like transcriptional activity.
MCF-7 cells were maintained in a RPMI-1640 medium containing 10% FBS. Exponentially growing cells were harvested by incubation in trypsin. Cells were then collected and plated in 24-well plates at 50,000 cells/well. Once cells reached 80-90% confluence (e.g., the next day), cells were transfected with two plasmids. The first plasmid was CYP26A1-luc construct (375 ng). The second plasmid was a control plasmid comprising the Renilla luciferase gene driven by constitutive thymidine kinase promoter (pRL-tk) (25 ng). Transfection was performed using FuGene 6 transfection reagent (Promega) with a 1:3 ratio of DNA:FuGene. 24 hours after transfection, cells were treated with test compounds diluted in DMSO in triplicate at 0.1, 1 and 10 μM final concentrations. As a positive control for reporter activation, cells were also treated with RA diluted in DMSO at the same concentrations listed above. DMSO treatment alone served as a negative control. After 24 hours of treatment, cells were harvested in passive lysis buffer (Promega) and luciferase activity in cell lysates were read using a luminometer. Data are expressed as the activity of firefly luciferase relative to Renilla luciferase (see Tables 3-5). For CYP26A1 inhibitor compounds, no activation of the reporter was detected, while the related retinoid-like compound induces luciferase expression.

[4] = system: human AML THP-1 cells; experiment: Leukemia cell differentiation by FACS (PE-CD11b), THP-1 cells with or without OP9 stroma; type: cell-based; details: RA alone
Procedure: (§2) Many human non-APL AML cell lines are sensitive to RA-induced differentiation. However, co-culture of leukemic cells with bone marrow stromal cells can block this effect of RA. This assay tests the ability of CYP26 inhibitor compounds to overcome the protective effect that stromal cells have on leukemic cell differentiation. For these experiments, OP9 mouse bone marrow stromal cells are grown MEM-α containing 20% FBS, in 24 well plates until a cell monolayer is formed. OP9 cells are then irradiated (15Gy) using a GammaCell 20 cesium-137 source (located at Queen's University) in order to induce growth arrest. Leukemic cells are then added to the irradiated monolayers, or control wells without OP9 cells. AML cell lines (150,000 cells) are then plated onto OP9 monolayers in their appropriated growth medium; THP-1 RPMI-1640 medium containing 10% FBS; MDSL, RPMI-1640 medium containing 10% FBS and 10 ng/ml recombinant human IL-3; Kasumi-1, RPMI-1640 containing 20% FBS; MV4-11, IMDM containing 10% FBS. Cells are then treated for 72 hours with DMSO (vehicle control), RA (0.1 μM for THP-1 and MV4-11 cells, and 1 μM for Kasumi-1 cells), test CYP26 inhibitor compound, or the combination of RA and inhibitor compound. After the treatment period, leukemic cells are collected and stained with fluorophore labeled antibodies against cell surface antigens indicative of myeloid differentiation (PE-CD11b), or of stem cell populations (FITC-CD34, PE-CD38); all antibodies are available from BD Biosciences. Stained cells are then sorted by FACS in a BD FACS Aria 3 flow cytometer (Queen's University) using FACS Diva software, to assess percentage of cells that are CD11b^+, the relative expression levels of CD11b (by median fluorescence intensity—MFI), or percentage of CD34^+CD38^− leukemic stem cells (LSCs). Results are typically presented as the average of triplicates.

[5] = system: THP-1 cells; experiment: Leukemia cell colony formation, THP-1 cells; type: cell-based, human; details: RA alone, without stroma
Procedure: This experiment is used to test the long-term proliferative ability of hematopoietic stem and progenitor cells as well as leukemic stem cells. Colony forming ability in long term cultures is indicative of stem/progenitor cell activity. […] For these experiments, bone marrow stromal and leukemic cell co-cultures are prepared as described above and treated with RA and/or CYP26 inhibitor compound for 72 hours. After the treatment period, leukemic cells are collected and re-plated in semi-solid methylcellulose medium to assess colony forming ability. 500 leukemic cells are plated per dish in 35 mm plates in 1.1 ml of MethoCult (available from STEMCELL Technologies, Vancouver, Canada). Triplicate plates are prepared per treatment, and cultures are grown for 14-16 days in a CO2 incubator. After the culture period colonies are counted under a dissecting microscope.

[6] = system: MV4-11 cells; experiment: Leukemia cell differentiation by FACS (CD11b+), MV4-11 cells with or without stroma; type: cell-based, human; details: RA alone, without stroma
Procedure: as §2, with “Cells are then treated for 72 hours with DMSO (vehicle control), RA (0.1 μM for THP-1 and MV4-11 cells, and 1 μM for Kasumi-1 cells), test CYP26 inhibitor compound, or the combination of RA and inhibitor compound. After the treatment period, leukemic cells are collected and stained with fluorophore labeled antibodies against cell surface antigens indicative of myeloid differentiation (PE-CD11b), or of stem cell populations (FITC-CD34, PE-CD38); all antibodies are available from BD Biosciences.” left out, “Results are typically presented as the average of triplicates.” left out

[7] = system: MV4-11 cells; experiment: Leukemia cell apoptosis (FITC-Annexin V), MV4-11 cells; type: cell-based, human; details: RA alone
Procedure: RA can also induce apoptosis is a variety of cell types, including AML cells. This experiment tests CYP26 inhibitor compounds for their ability to rescue RA-induced apoptosis in the presence of bone marrow stromal cells. For these experiments MV4-11 AML cells are plated as above, in the presence and absence of stromal monolayers. Cells are then treated for 48 hours with RA (0.1 μM). After the treatment period, cells are stained with a FITC-labeled annexin V antibody (available from Thermofisher Scientific), which binds to the surface of apoptotic cells. Cells are then sorted by FACS in a as above and data are expressed as percentage of annexin V^+ (apoptotic) cells.

[8] = system: kasumi-1 human AML cells; experiment: CD34+CD38- LSC analysis by FACS, Kasumi-1 cells with or without OP9 stroma; type: cell-based; details: 1 μM RA alone, without stroma
Procedure: as §2, with “Cells are then treated for 72 hours with DMSO (vehicle control), RA (0.1 μM for THP-1 and MV4-11 cells, and 1 μM for Kasumi-1 cells), test CYP26 inhibitor compound, or the combination of RA and inhibitor compound. After the treatment period, leukemic cells are collected and stained with fluorophore labeled antibodies against cell surface antigens indicative of myeloid differentiation (PE-CD11b), or of stem cell populations (FITC-CD34, PE-CD38); all antibodies are available from BD Biosciences.” left out, “Results are typically presented as the average of triplicates.” left out

[9] = system: rhino mice; experiment: Rhino mouse model of acne; type: in vivo; details: topical 10 nmol RA, 5 times per week, two weeks
Procedure: These experiments test the ability of CYP26 inhibitor compounds and other retinoids for potential anti-acne efficacy in a mouse model of acne. The rhino mouse model is a hairless mutant that develops skin lesions similar to acne, and has been used extensively as a model to assess new acne treatments, as well as in vivo activity of retinoids. Test compounds or RA were dissolved in acetone/10% DMSO, and 0.4 ml was applied topically to the dorsal skin of animals (2 male+2 female) once a day for five days per week, for two consecutive weeks. On the day after the last treatment, animals were sacrificed and skin was collected from the treated are and processed for histology, and epidermal sheets prepared for visualization of utriculi. Histological sections were prepared by paraffin embedding of formalin fixed samples, and stained with hematoxylin and eosin. Photographs were taken under a Nikon Eclipse E600 microscope using Q Imaging software at 20× magnification. Epidermal sheets were prepared by treating skin samples for 5 days in 0.5% acetic acid at 4° C. for 5 days, after which the dermal and epidermal layers were carefully separated, and the epidermis was then dehydrated with a series of ethanol treatments (70%, 80%, 90% and 100%). […]

CYP26A1, sequence (O43174 whole entry): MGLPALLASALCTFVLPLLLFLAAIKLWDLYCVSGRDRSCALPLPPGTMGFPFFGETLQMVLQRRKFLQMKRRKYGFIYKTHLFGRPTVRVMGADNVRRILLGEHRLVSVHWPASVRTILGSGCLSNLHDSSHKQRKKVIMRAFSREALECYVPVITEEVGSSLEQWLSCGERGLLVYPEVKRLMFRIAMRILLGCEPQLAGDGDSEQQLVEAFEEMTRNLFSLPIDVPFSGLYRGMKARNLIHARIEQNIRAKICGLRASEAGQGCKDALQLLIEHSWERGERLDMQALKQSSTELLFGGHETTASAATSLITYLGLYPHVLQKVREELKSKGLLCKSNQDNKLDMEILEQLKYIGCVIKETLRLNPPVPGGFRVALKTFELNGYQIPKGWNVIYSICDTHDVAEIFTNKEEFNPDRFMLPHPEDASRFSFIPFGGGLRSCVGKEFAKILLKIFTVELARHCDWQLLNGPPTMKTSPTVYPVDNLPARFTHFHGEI

For `CC1(C)CC(C)(C)c2cc(B3Oc4ccc(CC(=O)O)cc4O3)cc(C3CC3)c2O1` [Compound 030], the IC50 [1] was 31.5 µM, the “CYP26A1 Rel. to keto” value [1] was 20 and the IC50 [2] was 88.1 µM. For the same molecule, the “CYP26B1 Rel. to keto” value [2] was 9.2, the “Rel. Luciferase Activity (mean)” value ([3]; 0.1 μM) was “.0411” and the “Rel. Luciferase Activity (mean)” value ([3]; 1 μM) was “.0343”. The “Rel. Luciferase Activity (mean)” value ([3]; 10 μM) was “.0385”.

With `CC1(C)CC(C)(C)c2cc(C(=O)Cc3ccc(CC(=O)O)cc3)cc(C3CC3)c2O1` [Compound 028] the IC50 [1] was over 1000 µM, the IC50 [2] was over 1000 µM and the “Rel. Luciferase Activity (mean)” value ([3]; 0.1 μM) was “.0165”. The “Rel. Luciferase Activity (mean)” value ([3]; 1 μM) was “.0094” and the “Rel. Luciferase Activity (mean)” value ([3]; 10 μM) was “.0144”.

With `CC(C)(C)c1cccc(-c2cc3cc(CC(=O)O)ccc3o2)c1` [Compound 032] the IC50 [1] was 8.6 µM, the “CYP26A1 Rel. to keto” value [1] was 1.2 and the IC50 [2] was 2.3 µM. The “CYP26B1 Rel. to keto” value [2] was 0.3, the “Rel. Luciferase Activity (mean)” value ([3]; 0.1 μM) was “.0019” and the “Rel. Luciferase Activity (mean)” value ([3]; 1 μM) was “.0015”. The “Rel. Luciferase Activity (mean)” value ([3]; 10 μM) was “.0004”.

With `CC(C)(C)c1cccc(C(=O)Cc2ccc(/C=C/C(=O)O)cc2)c1` [Compound 025] the IC50 [1] was 45.6 µM, the “CYP26A1 Rel. to keto” value [1] was 21.7 and the IC50 [2] was 17.9 µM. The “CYP26B1 Rel. to keto” value [2] was 4.2, the “Rel. Luciferase Activity (mean)” value ([3]; 0.1 μM) was “.0144” and the “Rel. Luciferase Activity (mean)” value ([3]; 1 μM) was “.01”. The “Rel. Luciferase Activity (mean)” value ([3]; 10 μM) was “.0128”.

`CC(C)(C)c1cccc(-c2cc3cc(/C=C/C(=O)O)ccc3o2)c1` [Compound 031] was tested, and the IC50 [2] was 18.3 µM, the “CYP26B1 Rel. to keto” value [2] was 2 and the “Rel. Luciferase Activity (mean)” value ([3]; 0.1 μM) was “.0039”. For the same molecule, the “Rel. Luciferase Activity (mean)” value ([3]; 1 μM) was “.0047” and the “Rel. Luciferase Activity (mean)” value ([3]; 10 μM) was “.0034”.

For `CC(C)(C)c1cccc(B(O)Oc2ccc(/C=C/C(=O)O)cc2)c1` [Compound 029], the IC50 [2] was 54.9 µM, the “CYP26B1 Rel. to keto” value [2] was 5.7 and the “Rel. Luciferase Activity (mean)” value ([3]; 0.1 μM) was “.0386”. The “Rel. Luciferase Activity (mean)” value ([3]; 1 μM) was “.0384” and the “Rel. Luciferase Activity (mean)” value ([3]; 10 μM) was “.0333”.

For `C=CCc1cc(C(=O)Cc2ccc(CC(=O)O)cc2)cc2c1OC(C)(C)CC2(C)C` [Compound 027], the IC50 [1] was 8.6 µM, the “CYP26A1 Rel. to keto” value [1] was 1.2 and the IC50 [2] was 8.8 µM. The “CYP26B1 Rel. to keto” value [2] was 0.9, the “Rel. Luciferase Activity (mean)” value ([3]; 0.1 μM) was “.0116” and the “Rel. Luciferase Activity (mean)” value ([3]; 1 μM) was “.0099”. For the same molecule, the “Rel. Luciferase Activity (mean)” value ([3]; 10 μM) was “.0121”.

`CC1(C)CC(C)(C)c2cc(-c3cc4cc(CC(=O)O)ccc4o3)cc(C3CC3)c2O1` [Compound 033] was tested, and the “Rel. Luciferase Activity (mean)” value ([3]; 0.1 μM) was “.0024”, the “Rel. Luciferase Activity (mean)” value ([3]; 1 μM) was “.0026” and the “Rel. Luciferase Activity (mean)” value ([3]; 10 μM) was “.0027”.

For `Cc1ccc(C(C)(C)C)cc1-c1cc2cc(/C=C/C(=O)O)ccc2[nH]1` [Compound 034], the IC50 [1] was 9.6 µM, the “CYP26A1 Rel. to keto” value [1] was 1.9 and the IC50 [2] was 0.5 µM. The “CYP26B1 Rel. to keto” value [2] was 0.2.

`CC1=C(/C=C/C(C)=C/C=C/C(C)=C/C(=O)O)C(C)(C)CCC1` [RA, retinoic acid, reference compound] was tested, and the “CD11b marker expression (MFI)” value [4] was “significantly increases expression of the CD11b marker”, the Colony forming ability [5] was “reduced in THP-1 cells by exposure to RA” and the “Percentage of CD11b+ cells” value [6] was “increased the percentage of”. The “Apoptosis (Annexin V positive cells)” value [7] was “undergo apoptosis in response to RA”, the “Number of CD34+CD38- cells (LSCs)” value [8] was “significantly reduced the number of these cells” and the “Utriculi size and epidermis thickness” value [9] was “reduction in the size of these utriculi, and a thickening of the epidermis”.
